For the assay, the target named is LFA-1 binding to ICAM-1 (Homo sapiens, UniProt P05107+P20701). Put plainly: Inhibition of LFA-1 binding to ICAM-1 (LFA-1/Biotin-sICAM-1 AlphaScreen molecular assay). To be noted: highest compound concentration 1 μM in 1% DMSO, 37° C., 90 minutes. In outline:
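AlphaScreen binding of purified LFA-1 to biotinylated sICAM-1 in DPBS with Ca/Mg, 2 mM MgCl2, 0.1% BSA, pH 7.1; compound top concentration 1 μM in 1% DMSO, 90 min at 37 °C. Detection with TS2/4 anti-LFA-1 acceptor beads (10 μg/mL final) and streptavidin donor beads (15 μg/mL final), room temperature in the dark.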
In general terms: In Alpha technology, singlet oxygen from a donor bead excites a nearby acceptor bead.

For orientation: IC50 means the concentration that gives 50% inhibition. High values mean weaker potency in that assay, low ones greater potency in that assay.

Sequence of LFA-1 binding to ICAM-1 (P20701 26-1170): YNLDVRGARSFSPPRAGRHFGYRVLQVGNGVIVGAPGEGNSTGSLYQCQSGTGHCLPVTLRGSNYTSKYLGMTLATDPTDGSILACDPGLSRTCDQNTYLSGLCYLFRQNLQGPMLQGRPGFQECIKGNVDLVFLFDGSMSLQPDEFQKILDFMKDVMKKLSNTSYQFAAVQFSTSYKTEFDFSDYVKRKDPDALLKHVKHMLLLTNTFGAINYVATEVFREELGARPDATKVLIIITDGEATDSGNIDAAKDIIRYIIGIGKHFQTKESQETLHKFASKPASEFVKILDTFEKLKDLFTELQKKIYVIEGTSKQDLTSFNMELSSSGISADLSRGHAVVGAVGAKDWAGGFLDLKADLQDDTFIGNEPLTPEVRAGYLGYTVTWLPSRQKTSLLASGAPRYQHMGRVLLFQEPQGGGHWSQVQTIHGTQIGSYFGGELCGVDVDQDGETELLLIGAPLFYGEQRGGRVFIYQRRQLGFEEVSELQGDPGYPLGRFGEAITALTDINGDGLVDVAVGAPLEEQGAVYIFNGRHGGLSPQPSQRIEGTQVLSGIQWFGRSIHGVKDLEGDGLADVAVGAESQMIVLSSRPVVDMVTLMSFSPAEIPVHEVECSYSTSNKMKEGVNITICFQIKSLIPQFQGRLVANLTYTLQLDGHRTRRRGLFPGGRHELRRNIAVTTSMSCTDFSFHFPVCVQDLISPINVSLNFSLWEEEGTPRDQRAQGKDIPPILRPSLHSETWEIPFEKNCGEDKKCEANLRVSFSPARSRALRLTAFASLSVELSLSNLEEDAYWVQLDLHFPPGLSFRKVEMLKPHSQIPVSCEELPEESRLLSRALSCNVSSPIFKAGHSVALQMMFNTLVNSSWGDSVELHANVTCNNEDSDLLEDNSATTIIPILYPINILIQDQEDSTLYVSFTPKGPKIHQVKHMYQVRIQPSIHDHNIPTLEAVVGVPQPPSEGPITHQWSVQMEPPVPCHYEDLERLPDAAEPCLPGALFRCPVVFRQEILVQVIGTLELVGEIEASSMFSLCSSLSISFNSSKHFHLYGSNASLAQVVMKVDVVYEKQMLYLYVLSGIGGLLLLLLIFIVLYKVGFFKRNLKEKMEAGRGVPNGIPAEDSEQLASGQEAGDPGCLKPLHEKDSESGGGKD
Sequence of LFA-1 binding to ICAM-1 (P05107 23-769): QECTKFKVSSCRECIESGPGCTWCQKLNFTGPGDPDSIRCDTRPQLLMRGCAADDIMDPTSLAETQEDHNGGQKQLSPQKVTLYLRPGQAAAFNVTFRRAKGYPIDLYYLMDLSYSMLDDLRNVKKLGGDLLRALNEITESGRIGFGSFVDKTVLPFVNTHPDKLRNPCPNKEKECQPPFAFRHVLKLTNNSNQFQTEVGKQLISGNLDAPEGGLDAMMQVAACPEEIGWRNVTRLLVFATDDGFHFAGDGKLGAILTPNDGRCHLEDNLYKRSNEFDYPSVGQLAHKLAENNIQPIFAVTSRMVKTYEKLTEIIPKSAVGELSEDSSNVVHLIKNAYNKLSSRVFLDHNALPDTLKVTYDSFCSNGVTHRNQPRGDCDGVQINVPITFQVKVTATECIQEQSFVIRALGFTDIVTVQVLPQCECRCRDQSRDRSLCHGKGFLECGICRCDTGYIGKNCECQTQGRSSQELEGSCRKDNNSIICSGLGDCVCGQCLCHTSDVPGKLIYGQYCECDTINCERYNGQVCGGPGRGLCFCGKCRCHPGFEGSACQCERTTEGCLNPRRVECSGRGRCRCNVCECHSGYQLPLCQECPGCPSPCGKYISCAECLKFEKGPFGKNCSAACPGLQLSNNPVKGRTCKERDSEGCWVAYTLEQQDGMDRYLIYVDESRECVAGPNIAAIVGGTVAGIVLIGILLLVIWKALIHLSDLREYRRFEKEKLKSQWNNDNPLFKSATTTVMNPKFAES

As to `CC(O)CNC(=O)c1cccc(C2(NC(=O)C3(NC(=O)c4cnc5n4[C@](C)(Cc4ccc(C#N)cc4)C(=O)N5c4cc(Cl)cc(Cl)c4)CC3)CC2)n1` (some centres unmarked) [compound 74], the concentration for half-maximal inhibition (IC50) is 1.4 nM.

Regarding `CC(CO)NC(=O)c1cccc(C2(NC(=O)C3(NC(=O)c4cnc5n4[C@](C)(Cc4ccc(C#N)cc4)C(=O)N5c4cc(Cl)cc(Cl)c4)CC3)CC2)n1` (some centres unmarked) [compound 150], the IC50 was 0.81 nM.

Compound `CC(=O)NCCNC(=O)c1cccc(C2(NC(=O)C3(NC(=O)c4cnc5n4[C@](C)(Cc4ccc(C#N)cc4)C(=O)N5c4cc(Cl)cc(Cl)c4)CC3)CC2)n1` [compound 68] registered an IC50 of 0.5 nM.

Regarding `C[C@@]1(Cc2ccc(C#N)cc2)C(=O)N(c2cc(Cl)cc(Cl)c2)c2ncc(C(=O)NC3(C(=O)NC4(c5ccc(C(=O)NCc6ccccn6)cn5)CC4)CC3)n21` [compound 36], the IC50 came out at 0.25 nM.

As to `CC(=O)N1CCN(C(=O)c2ccc(C3(NC(=O)C4(NC(=O)c5cnc6n5[C@](C)(Cc5ccc(C#N)cc5)C(=O)N6c5cc(Cl)cc(Cl)c5)CC4)CC3)nc2)CC1` [compound 171], the IC50 worked out at 1.3 nM.

Compound `CC(NC(=O)c1ccnc(C2(NC(=O)C3(NC(=O)c4cnc5n4[C@](C)(Cc4ccc(C#N)cc4)C(=O)N5c4cc(Cl)cc(Cl)c4)CC3)CC2)c1)c1cccnc1` (some centres unmarked) [compound 139] yielded a half-inhibitory concentration (IC50) of 0.99 nM.

The compound `C[C@@]1(Cc2ccc(C#N)cc2)C(=O)N(c2cc(Cl)cc(Cl)c2)c2ncc(C(=O)NC3(C(=O)NC4(c5cc(C(=O)NCCc6cccnc6)ccn5)CC4)CC3)n21` [compound 95] yielded a concentration for half-maximal inhibition (IC50) of 1 nM.

On to `C[C@@H](CO)NC(=O)c1ccc(C2(NC(=O)C3(NC(=O)c4cnc5n4[C@](C)(Cc4ccc(C#N)cc4)C(=O)N5c4cc(Cl)cc(Cl)c4)CC3)CC2)nc1` [compound 91], for which the IC50 turned out to be 0.81 nM.

The compound `C[C@@]1(Cc2ccc(C#N)cc2)C(=O)N(c2cc(Cl)cc(Cl)c2)c2ncc(C(=O)NC3(C(=O)NC4(c5cc(C(=O)N6CCCCC6CO)ccn5)CC4)CC3)n21` (some centres unmarked) [compound 44] registered a half-inhibitory concentration (IC50) of 0.88 nM.

In the case of `C[C@@]1(Cc2ccc(C#N)cc2)C(=O)N(c2cc(Cl)cc(Cl)c2)c2ncc(C(=O)NC3(C(=O)NC4(c5cc(C(=O)NC(CO)CO)ccn5)CC4)CC3)n21` [compound 129], the IC50 came out at 0.55 nM.

In turn, `C[C@@]1(Cc2ccc(C#N)cc2)C(=O)N(c2cc(Cl)cc(Cl)c2)c2ncc(C(=O)NC3(C(=O)NC4(c5cc(C(=O)N6CC(O)C6)ccn5)CC4)CC3)n21` [compound 87] gave an IC50 of 0.98 nM.

For `CC(NC(=O)c1ccc(C2(NC(=O)C3(NC(=O)c4cnc5n4[C@](C)(Cc4ccc(C#N)cc4)C(=O)N5c4cc(Cl)cc(Cl)c4)CC3)CC2)nc1)c1ccncc1` (some centres unmarked) [compound 46], the IC50 stood at 0.78 nM.

`CC(NC(=O)c1ccnc(C2(NC(=O)C3(NC(=O)c4cnc5n4[C@](C)(Cc4ccc(C#N)cc4)C(=O)N5c4cc(Cl)cc(Cl)c4)CC3)CC2)c1)c1ccccn1` (some centres unmarked) [compound 149] yielded an IC50 of 0.29 nM.

Consider `C[C@@]1(Cc2ccc(C#N)cc2)C(=O)N(c2cc(Cl)cc(Cl)c2)c2ncc(C(=O)NC3(C(=O)NC4(c5ccc(C(=O)NCCn6ccnc6)cn5)CC4)CC3)n21` [compound 109], for which the IC50 is 0.41 nM.

On to `C[C@@]1(Cc2ccc(C#N)cc2)C(=O)N(c2cc(Cl)cc(Cl)c2)c2ncc(C(=O)NC3(C(=O)NC4(c5cccc(C(=O)N6CCCC(C(N)=O)C6)n5)CC4)CC3)n21` (some centres unmarked) [compound 23], for which the IC50 turned out to be 2.6 nM.

Turning to `C[C@@H](O)CNC(=O)c1ccc(C2(NC(=O)C3(NC(=O)c4cnc5n4[C@](C)(Cc4ccc(C#N)cc4)C(=O)N5c4cc(Cl)cc(Cl)c4)CC3)CC2)nc1` [compound 128], the IC50 turned out to be 0.47 nM.

With `C[C@@]1(Cc2ccc(C#N)cc2)C(=O)N(c2cc(Cl)cc(Cl)c2)c2ncc(C(=O)NC3(C(=O)NC4(c5cc(C(=O)N6CCC(CO)CC6)ccn5)CC4)CC3)n21` [compound 7], the IC50 turned out to be 1.4 nM.

With `C[C@@]1(Cc2ccc(C#N)cc2)C(=O)N(c2cc(Cl)cc(Cl)c2)c2ncc(C(=O)NC3(C(=O)NC4(c5cc(C(=O)N6CC[C@H](O)C6)ccn5)CC4)CC3)n21` [compound 103], the IC50 was 0.75 nM.

For `C[C@@]1(Cc2ccc(C#N)cc2)C(=O)N(c2cc(Cl)cc(Cl)c2)c2ncc(C(=O)NC3(C(=O)NC4(c5cccc(C(=O)N6CCNCC6)n5)CC4)CC3)n21` [compound 39], the IC50 was found to be 3.6 nM.

Turning to `C[C@@]1(Cc2ccc(C#N)cc2)C(=O)N(c2cc(Cl)cc(Cl)c2)c2ncc(C(=O)NC3(C(=O)NC4(c5cc(C(=O)NCCO)ccn5)CC4)CC3)n21` [compound 4], the IC50 stood at 0.92 nM.

The compound `C[C@@H](NC(=O)c1ccnc(C2(NC(=O)C3(NC(=O)c4cnc5n4[C@](C)(Cc4ccc(C#N)cc4)C(=O)N5c4cc(Cl)cc(Cl)c4)CC3)CC2)c1)c1ccccc1` [compound 53] had an IC50 of 2.4 nM.

In turn, `C[C@@]1(Cc2ccc(C#N)cc2)C(=O)N(c2cc(Cl)cc(Cl)c2)c2ncc(C(=O)NC3(C(=O)NC4(c5ccc(C(=O)NCc6ccncc6)cn5)CC4)CC3)n21` [compound 50] came in with an IC50 of 0.97 nM.

With `CN1CCN(C(=O)c2ccnc(C3(NC(=O)C4(NC(=O)c5cnc6n5[C@](C)(Cc5ccc(C#N)cc5)C(=O)N6c5cc(Cl)cc(Cl)c5)CC4)CC3)c2)CC1` [compound 156], the IC50 stood at 1.1 nM.

Regarding `C[C@@]1(Cc2ccc(C#N)cc2)C(=O)N(c2cc(Cl)cc(Cl)c2)c2ncc(C(=O)NC3(C(=O)NC4(c5cc(C(=O)N6CCNCC6)ccn5)CC4)CC3)n21` [compound 97], the IC50 turned out to be 1 nM.

Compound `CN(C)CCNC(=O)c1cccc(C2(NC(=O)C3(NC(=O)c4cnc5n4[C@](C)(Cc4ccc(C#N)cc4)C(=O)N5c4cc(Cl)cc(Cl)c4)CC3)CC2)n1` [compound 63] showed a 50% inhibitory concentration (IC50) of 1.7 nM.

Take `CC(O)CNC(=O)c1ccc(C2(NC(=O)C3(NC(=O)c4cnc5n4[C@](C)(Cc4ccc(C#N)cc4)C(=O)N5c4cc(Cl)cc(Cl)c4)CC3)CC2)nc1` (some centres unmarked) [compound 73]: the IC50 is 0.37 nM.

`C[C@@]1(Cc2ccc(C#N)cc2)C(=O)N(c2cc(Cl)cc(Cl)c2)c2ncc(C(=O)NC3(C(=O)NC4(c5ccc(C(=O)NCCC(N)=O)cn5)CC4)CC3)n21` [compound 112] had an IC50 of 0.28 nM.

Compound `C[C@@]1(Cc2ccc(C#N)cc2)C(=O)N(c2cc(Cl)cc(Cl)c2)c2ncc(C(=O)NC3(C(=O)NC4(c5cc(C(=O)N6CC[C@@H](O)C6)ccn5)CC4)CC3)n21` [compound 168] returned an IC50 of 3.4 nM.

For `C[C@@]1(Cc2ccc(C#N)cc2)C(=O)N(c2cc(Cl)cc(Cl)c2)c2ncc(C(=O)NC3(C(=O)NC4(c5ccc(C(=O)N6CCCCC6)cn5)CC4)CC3)n21` [compound 9], the IC50 is 1.8 nM.

`CC(=O)N1CCN(C(=O)c2cccc(C3(NC(=O)C4(NC(=O)c5cnc6n5[C@](C)(Cc5ccc(C#N)cc5)C(=O)N6c5cc(Cl)cc(Cl)c5)CC4)CC3)n2)CC1` [compound 22]: the IC50 stood at 2.1 nM.

In turn, `C[C@@H](NC(=O)c1ccc(C2(NC(=O)C3(NC(=O)c4cnc5n4[C@](C)(Cc4ccc(C#N)cc4)C(=O)N5c4cc(Cl)cc(Cl)c4)CC3)CC2)nc1)C(N)=O` [compound 102] had an IC50 of 0.37 nM.

In turn, `C[C@@]1(Cc2ccc(C#N)cc2)C(=O)N(c2cc(Cl)cc(Cl)c2)c2ncc(C(=O)NC3(C(=O)NC4(c5ccc(C(=O)NCc6ccccc6)cn5)CC4)CC3)n21` [compound 81] yielded an IC50 of 1.5 nM.

In turn, `C[C@@]1(Cc2ccc(C#N)cc2)C(=O)N(c2cc(Cl)cc(Cl)c2)c2ncc(C(=O)NC3(C(=O)NC4(c5cccc(C(=O)NCc6cccnc6)n5)CC4)CC3)n21` [compound 162] yielded an IC50 of 2.3 nM.

For `C[C@@]1(Cc2ccc(C#N)cc2)C(=O)N(c2cc(Cl)cc(Cl)c2)c2ncc(C(=O)NC3(C(=O)NC4(c5cc(C(=O)N6CCCCC6)ccn5)CC4)CC3)n21` [compound 110], the IC50 was 3.4 nM.

Consider `CC(C)(O)CNC(=O)c1ccc(C2(NC(=O)C3(NC(=O)c4cnc5n4[C@](C)(Cc4ccc(C#N)cc4)C(=O)N5c4cc(Cl)cc(Cl)c4)CC3)CC2)nc1` [compound 117], for which the IC50 is 0.37 nM.

For `C[C@@]1(Cc2ccc(C#N)cc2)C(=O)N(c2cc(Cl)cc(Cl)c2)c2ncc(C(=O)NC3(C(=O)NC4(c5cccc(C(=O)NCCC(N)=O)n5)CC4)CC3)n21` [compound 57], the IC50 is 0.82 nM.

Compound `CC(=O)N(C)C1CCN(C(=O)c2cccc(C3(NC(=O)C4(NC(=O)c5cnc6n5[C@](C)(Cc5ccc(C#N)cc5)C(=O)N6c5cc(Cl)cc(Cl)c5)CC4)CC3)n2)C1` (some centres unmarked) [compound 45] registered an IC50 of 4.5 nM.

Consider `CC(NC(=O)c1cccc(C2(NC(=O)C3(NC(=O)c4cnc5n4[C@](C)(Cc4ccc(C#N)cc4)C(=O)N5c4cc(Cl)cc(Cl)c4)CC3)CC2)n1)c1ccccn1` (some centres unmarked) [compound 12], for which the IC50 was found to be 8.5 nM.

Regarding `C[C@@]1(Cc2ccc(C#N)cc2)C(=O)N(c2cc(Cl)cc(Cl)c2)c2ncc(C(=O)NC3(C(=O)NC4(c5cccc(C(=O)NCc6ccccc6)n5)CC4)CC3)n21` [compound 25], the IC50 was 32 nM.

`C[C@@]1(Cc2ccc(C#N)cc2)C(=O)N(c2cc(Cl)c(F)c(Cl)c2)c2ncc(C(=O)NC3(C(=O)NC4(c5ccc(C(N)=O)cn5)CC4)CC3)n21` [compound 164]: the IC50 came out at 0.82 nM.

Take `CC(=O)N1CCN(C(=O)c2ccnc(C3(NC(=O)C4(NC(=O)c5cnc6n5[C@](C)(Cc5ccc(C#N)cc5)C(=O)N6c5cc(Cl)cc(Cl)c5)CC4)CC3)c2)CC1` [compound 113]: the IC50 was determined as 1.3 nM.

Consider `C[C@@]1(Cc2ccc(C#N)cc2)C(=O)N(c2cc(Cl)cc(Cl)c2)c2ncc(C(=O)NC3(C(=O)NC4(c5cc(C(=O)NCCc6ccccc6)ccn5)CC4)CC3)n21` [compound 32], for which the IC50 stood at 4 nM.

For the compound `CN(C)C1CCN(C(=O)c2ccnc(C3(NC(=O)C4(NC(=O)c5cnc6n5[C@](C)(Cc5ccc(C#N)cc5)C(=O)N6c5cc(Cl)cc(Cl)c5)CC4)CC3)c2)C1` (some centres unmarked) [Compound 1], the IC50 was 1.4 nM.

Compound `C[C@@]1(Cc2ccc(C#N)cc2)C(=O)N(c2cc(Cl)cc(Cl)c2)c2ncc(C(=O)NC3(C(=O)NC4(c5cc(C(=O)NCC(N)=O)ccn5)CC4)CC3)n21` [compound 172] showed a half-inhibitory concentration (IC50) of 0.84 nM.

The values above are taken from patent US8481750B2 (Boehringer Ingelheim International GmbH, priority 2009, dated 2013).
